# Test results taken from patent publication US12473305B2, “Pyrazole boronic acid compound, pharmaceutical composition containing same, and uses thereof” (BEIJING SONGRUN PHARMACEUTICAL TECHNOLOGY CO., LTD., priority 2020, dated 2025).
# Legend:
# [1] = system: human multiple myeloma RPMI 8226; assay: Pharmacodynamic study, RPMI 8226 subcutaneous xenograft; type: in vivo, female NOD/SCID mice; details: BIW, tail vein, day of the last administration; for Tumor volume (x ± S): in mm³ (unit assumed)
# Experimental: The anti-tumor effect in vivo was studied by using the tumor animal model obtained by subcutaneous xenotransplantation of cell lines into female NOD/SCID mice (purchased from Sipeifu Biotechnology Co., Ltd.).
# RPMI 8226 cells were subcutaneously inoculated into NOD/SCID mice, and human multiple myeloma subcutaneously transplanted tumor model was successfully established 9 days after inoculating the cells. The test was divided into vehicle (0.3 mL DMSO, 0.27 mL Tween-80, 2.43 mL normal saline) control group, compound 30 low-dose group (20 mg/kg), compound 30 medium-dose group (30 mg/kg), compound 30 high-dose group (40 mg/kg), compound 39 low-dose group (5 mg/kg), compound 39 medium-dose group (10 mg/kg), and compound 39 high-dose group (15 mg/kg), and bortezomib (API purchased from Yangtze River Pharmaceutical) was used as the positive control group (0.5 mg/kg); 5 tumor-bearing mice established above in each group were administered by tail vein twice a week for nine times in total. The long diameter a (mm) of the tumor and the short diameter b (mm) of the tumor perpendicular to the long diameter were measured with digital electronic caliper twice a week. The calculation formula of tumor volume was: TV=ab^2/2; and the calculation formula of relative tumor volume was: RTV=Vt/Vo, Vo was the tumor volume measured when the mice in each group were divided into cages and administered for the first time (d1), and Vt was the tumor volume measured at the last administration. The animals were sacrificed 31 days (d22) after inoculation of RPMI 8226 cells, and weighed. The tumor mass was dissected and weighed, and the tumor inhibition rate was calculated according to the following formula: […]
# [2] = system: Human melanoma cell line A375; assay: CellTiter-Glo tumor cell proliferation, A375; type: cell-based; details: Homo sapiens, A-375; CellTiter-Glo, 72 h
# How it was run: (§1)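 Cells seeded at 2×10^4/mL, grown 24 h at 37° C, 5% CO2, then treated in triplicate with medium-diluted compound for 72 h. CellTiter-Glo luminescence read after 20 min at 37° C; inhibition versus untreated control RLU, IC50 calculated.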
# [3] = biological target: T1, 20S proteasome β5 subunit (Homo sapiens, UniProt P20618+P28074); assay: Proteasome-Glo Cell-Based assay in K562 cells, β5 subunit; details: 2 h incubation
# T1 construct: endogenous in cells; host or cells: K562
# Experimental: Proteasome-Glo™ Cell-Based assay kit (Promega, USA) was used to determine the activity of the target compound against the 20S proteasome. Human chronic myeloid leukemia cell line (K562, 6000 cells/well) was inoculated into the 384 well plate in 20 μL/well. The cells were then equilibrated at 37° C., 5% CO2 for 2 hours. Each 384 well plate was set with the mock group and treatment group, and each well of the treatment group was added with 5 μL of the compound solution with the final concentration of 40 μM, 13.3 μM, 4.44 μM, 1.48 μM, 0.49 μM, 0.16 μM, 0.055 μM, 0.0183 μM, […], 0.0061 μM. The cells was incubated with the drugs for 2 hours at 37° C., 5% CO2 before adding 25 μL of corresponding Proteasome-Glo™ Cell-Based reagent per well. The relative luminescence unit (RLU) was measured by using Multimode Microplate Reader Varioskan Flash (Thermo Scientific, USA) after 15 min and compared with the RLU of the control group. SigmaPlot 10.0 software was used to calculate IC50 value.
# [4] = system: A375; assay: MTT antitumor spectrum, A375; type: cell-based; details: Homo sapiens, A-375, 72 h
# Experimental: The activity of compound 30 was evaluated by MTT method against seven tumor cell models, A549, A375, HCT116, MDA-MB-231, HepG2, PC3 and MCF-7. All cells used in the study were prepared at a concentration of 3.5×10^3 cells/mL, and each […] cell suspension was inoculated on a 96-well microtiter plate for 24 hours (37° C., 5% CO2). Then different concentrations of compound 30 were added, incubated for 72 hours; and for the control group, equivalent concentrations of DMSO (final concentration 0.5%) were added. The number of viable cells was measured by MTT (3-(4,5-dimethylthiazol-2-yl)-diphenyl tetrazolium bromide) method, and the OD value at 492/620 nm was recorded. The IC50 value was calculated by Prism-Graphpad software based on the results of triplicate experiments.
# [5] = system: colorectal cancer cell line HCT116; assay: CellTiter-Glo tumor cell proliferation, HCT116; type: cell-based, human; details: Homo sapiens, HCT-116; CellTiter-Glo, 72 h
# How it was run: as §1
compound,measurement,setting,value
"CC(C)C[C@H](NC(=O)Cn1nc(-c2cccc(OCCN3CCOCC3)c2)cc1-c1ccccc1)B(O)O.Cl [Compound 30, (R)-(3-methyl-1-(2-(3-(3-(2-morpholinoethoxy)phenyl)-5-phenyl-1H-pyrazol-1-yl)-acetamido)butyl)boronic acid hydrochloride]",Relative tumor volume (x ± S),[1]; 20 mg/kg,2.57 ± 0.61
same,T/C (%),[1]; 20 mg/kg,27.55%
same,TGI (%),[1]; 20 mg/kg,72.45%
same,Tumor volume (x ± S),[1]; 20 mg/kg,267.27 ± 77.46
same,Relative tumor volume (x ± S),[1]; 30 mg/kg,1.63 ± 0.32
same,T/C (%),[1]; 30 mg/kg,17.47%
same,TGI (%),[1]; 30 mg/kg,82.53%
same,Tumor volume (x ± S),[1]; 30 mg/kg,147.56 ± 33.02
same,Relative tumor volume (x ± S),[1]; 40 mg/kg,0.74 ± 0.12
same,T/C (%),[1]; 40 mg/kg,7.93%
same,TGI (%),[1]; 40 mg/kg,92.07%
same,Tumor volume (x ± S),[1]; 40 mg/kg,72.06 ± 13.62
same,IC50,[2],822 nM
same,IC50,[3],400 nM
same,IC50,[4],820 nM
same,IC50,[5],630 nM
"CC(C)C[C@H](NC(=O)Cn1nc(-c2cccc(OCCN3CCN(c4ccccc4)CC3)c2)cc1-c1ccccc1)B(O)O.Cl [Compound 39, (R)-(3-methyl-1-(2-(5-phenyl-3-(3-(2-(4-phenylpiperazin-1-yl)ethoxy)phenyl)-1H-pyrazol-1-yl)acetamido)butyl)boronic acid hydrochloride]",Relative tumor volume (x ± S),[1]; 5 mg/kg,1.51 ± 0.38
same,T/C (%),[1]; 5 mg/kg,16.18%
same,TGI (%),[1]; 5 mg/kg,83.82%
same,Tumor volume (x ± S),[1]; 5 mg/kg,177.55 ± 51.28
same,Relative tumor volume (x ± S),[1]; 10 mg/kg,0.62 ± 0.28
same,T/C (%),[1]; 10 mg/kg,6.65%
same,TGI (%),[1]; 10 mg/kg,93.35%
same,Tumor volume (x ± S),[1]; 10 mg/kg,75.06 ± 19.64
same,Relative tumor volume (x ± S),[1]; 15 mg/kg,0.36 ± 0.02
same,T/C (%),[1]; 15 mg/kg,3.86%
same,TGI (%),[1]; 15 mg/kg,96.14%
same,Tumor volume (x ± S),[1]; 15 mg/kg,21.79 ± 3.50
same,IC50,[3],200 nM
same,IC50,[5],84 nM
